# Data: PMC7247818, “Demonstration of Binding Induced Structural Plasticity in a SH2 Domain” (Frontiers in Molecular Biosciences, 2020)
# Where a SMILES comes first, the peptide text is derived from it.
# What was measured:
# Details in all cases: 10°C
# [1] = molecular target: T1, N-SH2 domain of PI3K, L59A variant (Homo sapiens, UniProt P27986, L380A); experiment: Stopped-flow binding kinetics, N-SH2 L59A
# T1 construct: made in house
# Description: (§1) N-SH2 wild-type and all the site-directed variants were expressed and purified as described previously ([Visconti et al., 2019]). All the mutants were obtained using a QuickChange Lightning Site-Directed Mutagenesis kit (Agilent technologies), accordingly to manufacturer instructions. Peptides with sequence TNSEDNpYVPMNPG mimicking wild-type Gab2 and TNSEDNpYVPANPG mimicking the M457A variant of Gab2 were purchased from GenScript Biotech Corporation.
# (§2) Binding kinetics experiments were performed using a single-mixing SX-18 stopped-flow instrument (Applied Photophysics); all binding experiments were conducted in 50 mM Hepes pH 7.4 300 mM NaCl at 10°C. Excitation was at 280 nm and emission was collected using a […] cut-off glass filter. Pseudo-first order binding experiments were performed mixing a constant concentration of dansylated Gab2_448–460 and Gab2_448–460 M457A (1 μM) vs. N-SH2 wt and its mutants at concentrations ranging from […]. For each N-SH2 concentration, usually 5 individual traces were averaged and in all cases the fluorescence time courses obtained was satisfactorily fitted by using a single exponential equation.
# (§3) One of the aims of this study is to depict the molecular details of the interaction between the N-SH2 domain of PI3K and Gab2. […] To monitor binding by fluorescence, a dansyl group was added at the N-terminus of the peptide. The binding reaction was monitored by stopped-flow experiments following the change in FRET signal, taking advantage of the two Trp residues on the N-SH2 domain in positions 12 and 14 as fluorescence donor and the dansyl group on Gab2_448–460 as acceptor. […]
# (§4) with kon being the slope of the line and koff the intercept with the y-axis. […] Kinetic parameters extracted from data together with the calculated changes in activation and equilibrium free energies are reported in Table 1. […]
# [2] = molecular target: T2, N-SH2 domain of PI3K, I60V variant (Homo sapiens, UniProt P27986, I381V); experiment: Stopped-flow binding kinetics, N-SH2 I60V
# T2 construct: made in house
# T2 sequence (P27986 333-428 I381V): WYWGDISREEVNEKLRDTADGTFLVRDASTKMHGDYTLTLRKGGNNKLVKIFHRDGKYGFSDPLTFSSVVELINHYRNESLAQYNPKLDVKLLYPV
# Description: as §1, §2
# (§5) One of the aims of this study is to depict the molecular details of the interaction between the N-SH2 domain of PI3K and Gab2. A powerful strategy to achieve this goal relies on perturbing the system by producing conservative site-directed variants while monitoring the effect of mutations on the association and dissociation rate constants between the interacting partners (kon and koff respectively). Thus, we designed and successfully produced 21 site-directed variants of the N-SH2 domain and challenged them vs. a peptide mimicking the region of Gab2 ranging from residue 448–460 (Gab2_448–460), containing the pY-X-X-M motif that is specifically recognized by the N-SH2 domain ([Waksman et al., 1992]; [Songyang et al., 1993]). The choise of mutations was designed in analogy to phi-value analysis methodology in protein folding studies ([Fersht and Sato, 2004]). […] To monitor binding by fluorescence, a dansyl group was added at the N-terminus of the peptide. The binding reaction was monitored by stopped-flow experiments following the change in FRET signal, taking advantage of the two Trp residues on the N-SH2 domain in positions 12 and 14 as fluorescence donor and the dansyl group on Gab2_448–460 as acceptor. The experiments were performed in pseudo-first order conditions with Gab2_448–460 at fixed concentration of 1 μM rapidly mixed vs. large excess of N-SH2 wt and its variants, ranging from 4 to 14 μM, in buffer Hepes 50 mM, NaCl 300 mM, pH 7.4, at 10°C.
# (§6) with kon being the slope of the line and koff the intercept with the y-axis. Since indirect calculation of koff obtained by extrapolation is associated with high experimental error, we performed displacement experiments to directly measure koff by challenging a pre-incubated complex of dansylated Gab2_448–460 and N-SH2 domain both at the concentration of 1 μM vs. a large excess of non-dansylated Gab2_448–460 (50 μM). Kinetic parameters extracted from data together with the calculated changes in activation and equilibrium free energies are reported in Table 1. Analysis of kinetic data highlights that T48S, L51A, and L59A variations cause a detectable decrease of the affinity of the domain for Gab2_448–460 of ∼10-fold, affecting both the kon and koff. […] Since L99 residue is part of the binding pocket, this dramatic effect on the binding affinity is expected.
# (§7) SH2 domains bind ligands with a phosphorylated tyrosine in their sequence. The N-SH2 domain of PI3K is known to recognize a specific consensus sequences that present a methionine in position +3 in respect to the phosphotyrosine (M457 in Gab2). […]
# [3] = molecular target: T3, N-SH2 domain of PI3K, I62V variant (Homo sapiens, UniProt P27986, I383V); experiment: Stopped-flow binding kinetics, N-SH2 I62V
# T3 construct: made in house
# T3 sequence (P27986 333-428 I383V): as the sequence (P27986 333-428 I381V) above, with V49I, I51V counted along it
# Description: as §1, §2, §5, §6, §7
# [4] = molecular target: T4, N-SH2 domain of PI3K, P74A variant (Homo sapiens, UniProt P27986, P395A); experiment: Stopped-flow binding kinetics, N-SH2 P74A
# T4 construct: made in house
# T4 sequence (P27986 333-428 P395A): as the sequence (P27986 333-428 I381V) above, with V49I, P63A counted along it
# Description: as §1, §2, §5, §6, §7
# [5] = molecular target: T5, N-SH2 domain of PI3K, L75A variant (Homo sapiens, UniProt P27986, L396A); experiment: Stopped-flow binding kinetics, N-SH2 L75A
# T5 construct: made in house
# T5 sequence (P27986 333-428 L396A): as the sequence (P27986 333-428 I381V) above, with V49I, L64A counted along it
# Description: as §1, §2, §5, §6, §7
# [6] = molecular target: T6, N-SH2 domain of PI3K, T76S variant (Homo sapiens, UniProt P27986, T397S); experiment: Stopped-flow binding kinetics, N-SH2 T76S
# T6 construct: made in house
# T6 sequence (P27986 333-428 T397S): as the sequence (P27986 333-428 I381V) above, with V49I, T65S counted along it
# Description: as §1, §2, §5, §6, §7
# [7] = molecular target: T7, N-SH2 domain of PI3K, V80A variant (Homo sapiens, UniProt P27986, V401A); experiment: Stopped-flow binding kinetics, N-SH2 V80A
# T7 construct: made in house
# T7 sequence (P27986 333-428 V401A): as the sequence (P27986 333-428 I381V) above, with V49I, V69A counted along it
# Description: as §1, §2, §5, §6, §7
# [8] = molecular target: T8, N-SH2 domain of PI3K, V81A variant (Homo sapiens, UniProt P27986, V402A); experiment: Stopped-flow binding kinetics, N-SH2 V81A
# T8 construct: made in house
# T8 sequence (P27986 333-428 V402A): as the sequence (P27986 333-428 I381V) above, with V49I, V70A counted along it
# Description: as §1, §2, §5, §6, §7
# [9] = molecular target: T9, N-SH2 domain of PI3K, L99A variant (Homo sapiens, UniProt P27986, L420A); experiment: Stopped-flow binding kinetics, N-SH2 L99A
# T9 construct: made in house
# T9 sequence (P27986 333-428 L420A): as the sequence (P27986 333-428 I381V) above, with V49I, L88A counted along it
# Description: as §1, §2, §3, §4
# [10] = molecular target: T10, N-SH2 domain of PI3K, V101A variant (Homo sapiens, UniProt P27986, V422A); experiment: Stopped-flow binding kinetics, N-SH2 V101A
# T10 construct: made in house
# T10 sequence (P27986 333-428 V422A): as the sequence (P27986 333-428 I381V) above, with V49I, V90A counted along it
# Description: as §1, §2, §5, §6, §7
# [11] = molecular target: T11, N-SH2 domain of PI3K, L104A variant (Homo sapiens, UniProt P27986, L425A); experiment: Stopped-flow binding kinetics, N-SH2 L104A
# T11 construct: made in house
# T11 sequence (P27986 333-428 L425A): as the sequence (P27986 333-428 I381V) above, with V49I, L93A counted along it
# Description: as §1, §2, §5, §6, §7
# [12] = stopped-flow FRET, 1 μM dansylated peptide, 50 mM Hepes pH 7.4, 300 mM NaCl
# [13] = stopped-flow kinetics, pH 7.4, 300 mM NaCl
# [14] = displacement experiment, pH 7.4, 300 mM NaCl
# T1 sequence (P27986 333-428 L380A): as the sequence (P27986 333-428 I381V) above, with L48A, V49I counted along it
smiles,measurement,setting,value
CSCC[C@H](NC(=O)[C@@H]1CCCN1C(=O)[C@@H](NC(=O)[C@H](Cc1ccc(OP(=O)(O)O)cc1)NC(=O)[C@H](CC(N)=O)NC(=O)[C@H](CC(=O)O)NC(=O)[C@H](CCC(=O)O)NC(=O)[C@H](CO)NC(=O)[C@H](CC(N)=O)NC(=O)[C@@H](N)[C@@H](C)O)C(C)C)C(=O)N[C@@H](CC(N)=O)C(=O)N1CCC[C@H]1C(=O)NCC(=O)O [Gab2_448–460] (HELM PEPTIDE1{T.N.S.E.D.N.[O=C([C@H](Cc1ccc(OP(=O)(O)O)cc1)N[*:1])[*:2]].V.P.M.N.P.G}$$$$V2.0),kon,[1]; [12],6.7e+06 ± 1e+06 M⁻¹ s⁻¹
same,Kd,[1]; [13],3200 ± 200 nM
same,koff,[2]; [14],6.9 ± 0.3 s⁻¹
same,kon,[2]; [12],9.1e+06 ± 1.1e+06 M⁻¹ s⁻¹
same,Kd,[2]; [13],800 ± 100 nM
same,koff,[3]; [14],4.5 ± 0.2 s⁻¹
same,kon,[3]; [12],1.55e+07 ± 1.4e+06 M⁻¹ s⁻¹
same,Kd,[3]; [13],300 ± 100 nM
same,koff,[4]; [14],27 ± 1 s⁻¹
same,kon,[4]; [12],4.87e+07 ± 1.5e+06 M⁻¹ s⁻¹
same,Kd,[4]; [13],600 ± 100 nM
same,koff,[5]; [14],6.1 ± 0.3 s⁻¹
same,kon,[5]; [12],8.1e+06 ± 1.1e+06 M⁻¹ s⁻¹
same,Kd,[5]; [13],800 ± 100 nM
same,koff,[6]; [14],5.3 ± 0.3 s⁻¹
same,kon,[6]; [12],1.69e+07 ± 1.3e+06 M⁻¹ s⁻¹
same,Kd,[6]; [13],300 ± 100 nM
same,koff,[7]; [14],4.4 ± 0.2 s⁻¹
same,kon,[7]; [12],1.6e+07 ± 1.2e+06 M⁻¹ s⁻¹
same,Kd,[7]; [13],300 ± 100 nM
same,koff,[8]; [14],4.5 ± 0.2 s⁻¹
same,kon,[8]; [12],1.2e+07 ± 1.4e+06 M⁻¹ s⁻¹
same,Kd,[8]; [13],400 ± 100 nM
same,koff,[9]; [14],160 ± 10 s⁻¹
same,kon,[9]; [12],8.2e+06 ± 1.7e+06 M⁻¹ s⁻¹
same,Kd,[9]; [13],20000 ± 200 nM
same,koff,[10]; [14],7 ± 0.4 s⁻¹
same,kon,[10]; [12],1.34e+07 ± 400000 M⁻¹ s⁻¹
same,Kd,[10]; [13],500 ± 100 nM
same,koff,[11]; [14],3.5 ± 0.2 s⁻¹
same,kon,[11]; [12],1.65e+07 ± 200000 M⁻¹ s⁻¹
same,Kd,[11]; [13],200 ± 100 nM
